Source: patent publication US8933110B2, “Hepatitis C virus inhibitors” (Enanta Pharmaceuticals, Inc., priority 2010, dated 2015)
pEC50: −log10 of the molar value. Like-named read-outs stand apart in the source and are kept apart here.

Tested on: HCV 1b genotype replicon
Assay: HCV replicon assay (qRT-PCR or luciferase), genotype 1b
Assay type: cell-based
Conditions: Hepatitis C virus
Source text: HCV replicon cell lines (kindly provided by R. Bartenschlager) isolated from colonies as described by Lohman et al. (Lohman et al. (1999) Science 285: 110-113, expressly incorporated by reference in its entirety) and used for all experiments. The HCV replicon has the nucleic acid sequence set forth in EMBL Accession No.: AJ242651, the coding sequence of which is from nucleotides 1801 to 8406.
The coding sequence of the published HCV replicon was synthesized and subsequently assembled in a modified plasmid pBR322 (Promega, Madison, Wis.) using standard molecular biology techniques. One replicon cell line (“SGR 11-7”) stably expresses HCV replicon RNA which consists of (i) the HCV 5′UTR fused to the first 12 amino acids of the capsid protein, (ii) the neomycin phosphotransferase gene (neo), (iii) the IRES from encephalomyocarditis virus (EMCV) and (iv) HCV NS2 to NS5B genes and the HCV 3′UTR. Another replicon cell line (“Huh-luc/neo-ET”) described by Vrolijk et. al. (Vrolijk et. al. (2003) Journal of Virological Methods 110:201-209, expressly incorporated by reference in its entirety) stably expresses HCV replicon RNA which consists of (i) the HCV 5′UTR fused to the first 12 amino acids of the capsid protein, (ii) the firefly luciferase reporter gene, (iii) the ubiquitin gene, (iv) the neomycin phosphotransferase gene (neo), (v) the IRES from encephalomyocarditis virus (EMCV) and (vi) HCV NS3 to NS5B genes that harbor cell culture adaptive mutations (E1202G, T12801, K1846T) and the HCV 3′UTR.
These cell lines are maintained at 37° C., 5% CO2, 100% relative humidity in DMEM (Cat#11965-084, Invitrogen), with 10% fetal calf serum (“FCS”, Invitrogen), 1% non-essential amino acids (Invitrogen), 1% of Glutamax (Invitrogen), 1% of 100× penicillin/streptomycin (Cat#15140-122, Invitrogen) and Geneticin (Cat#10131-027, Invitrogen) at 0.75 mg/ml or 0.5 mg/ml for 11-7 and Huh-luc/neo-ET cells, respectively.
EC50 values of single agent compounds were determined by HCV RNA detection using quantitative RT-PCR, according to the manufacturer's instructions, with a TAQMAN® One-Step RT-PCR Master Mix Reagents Kit (Cat#AB 4309169, Applied Biosystems) on an ABI Model 7500 thermocycler. EC50 values of combinations are similarly determined by HCV RNA detection using quantitative RT-PCR. The TAQMAN primers to use for detecting and quantifying HCV RNA obtained from Integrated DNA Technologies. HCV RNA is normalized to GAPDH RNA levels in drug-treated cells, which is detected and quantified using the Human GAPDH Endogenous Control Mix (Applied Biosystems, AB 4310884E). Total cellular RNA is purified from 96-well plates using the RNAqueous 96 kit (Ambion, Cat#AM1812). Chemical agent cytotoxicity is evaluated using an MTS assay according to the manufacturer's directions (Promega).
Since clinical drug resistance often develops in viral infections following single agent therapies, there is a need to assess the additive, antagonistic, or synergistic properties of combination therapies. We use the HCV replicon system to assess the potential use of the compound of the present invention or in combination therapies with Interferon alpha, cyclosporine analogs and inhibitors targeting other HCV proteins. The acute effects of a single or combinations of drugs are studied in the “Huh-luc/neo-ET” replicon with each chemical agent titrated in an X or Y direction in a 6 point two-fold dilution curve centered around the EC50 of each drug. Briefly, replicon cells are seeded at 7,000 cells per well in 90 ul DMEM (without phenol red, Invitrogen Cat.#31053-036) per well with 10% FCS, 1% non-essential amino acids, 1% of Glutamax and 1% of 100× penicillin/streptomycin and incubated overnight at 37° C., 5% CO2, 100% relative humidity. […]

[1] = read-out: Genotype-1b replicon EC50 Range
[2] = read-out: Genotype-1b replicon EC50

SMILES | pEC50 [1] | pEC50 [2]
COC(=O)N[C@H]1CCCCOCc2[nH]c(nc2-c2ccc(-c3ccc(-c4c[nH]c([C@@H]5CCCN5C(=O)[C@@H](NC(=O)OC)C(C)C)n4)cc3)cc2)[C@@H]2CCCN2C1=O [Example 83] | > 10.00 | 
COC(=O)N[C@H]1CCCCOCc2[nH]c(nc2-c2ccc(-c3ccc(-c4c[nH]c([C@@H]5CC6(CC6)CN5C(=O)[C@@H](NC(=O)OC)C(C)C)n4)cc3)cc2)[C@@H]2CCCN2C1=O [Example 258] | > 10.00 | 10.85
COC(=O)N[C@H](C(=O)N1CCC[C@H]1c1nc(-c2ccc(-c3ccc(-c4nc5[nH]c4COCCC[C@H](C)[C@H](NC(=O)OC)C(=O)N4CCC[C@@H]54)cc3)cc2)c[nH]1)C(C)C [Example 317] | > 10.00 | 
COC(=O)N[C@H](C(=O)N1CCC[C@H]1c1nc(-c2ccc(-c3ccc(-c4nc5[nH]c4COC/C=C/[C@H](C)[C@H](NC(=O)OC)C(=O)N4CCC[C@@H]54)cc3)cc2)c[nH]1)C(C)C [Example 318] | 9.00 to 10.00 | 
COC(=O)N[C@H]1CCCCCOCc2[nH]c(nc2-c2ccc(-c3ccc(-c4c[nH]c([C@@H]5CCCN5C(=O)[C@@H](NC(=O)OC)C(C)C)n4)cc3)cc2)[C@@H]2CCCN2C1=O [Example 322] | > 10.00 | 
COC(=O)N[C@H]1Cc2cc(on2)COCc2[nH]c(nc2-c2ccc(-c3ccc(-c4c[nH]c([C@@H]5CCCN5C(=O)[C@@H](NC(=O)OC)C(C)C)n4)cc3)cc2)[C@@H]2CCCN2C1=O [Example 333] | > 10.00 | 10.08
COC(=O)N[C@H]1CCCCOCc2[nH]c(nc2-c2ccc(-c3ccc(-c4nc5[nH]c4COCCCC[C@H](NC(=O)OC)C(=O)N4CCC[C@@H]54)cc3)cc2)[C@@H]2CCCN2C1=O [Example 336] | 9.00 to 10.00 | 9.76
COC(=O)N[C@H]1C/C=C/COCc2[nH]c(nc2-c2ccc(-c3ccc(-c4c[nH]c([C@@H]5CCCN5C(=O)[C@@H](NC(=O)OC)C(C)C)n4)cc3)cc2)[C@@H]2CCCN2C1=O [Example 344] | > 10.00 | 10.33
COC(=O)N[C@H](C(=O)N1CCC[C@H]1c1nc(-c2ccc(-c3ccc(-c4nc5[nH]c4COCCCCO[C@H](C)[C@H](NC(=O)OC)C(=O)N4CCC[C@@H]54)cc3)cc2)c[nH]1)C(C)C [Example 349] | > 10.00 | 
COC(=O)N[C@H]1COCCCCOCc2[nH]c(nc2-c2ccc(-c3ccc(-c4c[nH]c([C@@H]5CCCN5C(=O)[C@@H](NC(=O)OC)C(C)C)n4)cc3)cc2)[C@@H]2CCCN2C1=O [Example 353] | > 10.00 | 10.64
COC(=O)N[C@H]1CCCCC/C=C\COCc2[nH]c(nc2-c2ccc(-c3ccc(-c4c[nH]c([C@@H]5CCCN5C(=O)[C@@H](NC(=O)OC)C(C)C)n4)cc3)cc2)[C@@H]2CCCN2C1=O [Example 355] | > 10.00 | 
COC(=O)N[C@H]1CCCCCCCCOCc2[nH]c(nc2-c2ccc(-c3ccc(-c4c[nH]c([C@@H]5CCCN5C(=O)[C@@H](NC(=O)OC)C(C)C)n4)cc3)cc2)[C@@H]2CCCN2C1=O [Example 356] | > 10.00 | 
COC(=O)N[C@H]1C/C=C/COCc2[nH]c(nc2-c2ccc(-c3ccc(-c4c[nH]c([C@@H]5CCCN5C(=O)[C@@H](NC(=O)OC)C(C)C)n4)cc3)cc2)CN(C)C1=O [Example 359] | < 9.00 | 
COC(=O)N[C@H]1CCCCCCOCc2[nH]c(nc2-c2ccc(-c3ccc(-c4c[nH]c([C@@H]5CCCN5C(=O)[C@@H](NC(=O)OC)C(C)C)n4)cc3)cc2)[C@@H]2CCCN2C1=O [Example 366] | > 10.00 | 
COC(=O)N[C@H]1CCCCCCCOCc2[nH]c(nc2-c2ccc(-c3ccc(-c4c[nH]c([C@@H]5CCCN5C(=O)[C@@H](NC(=O)OC)C(C)C)n4)cc3)cc2)[C@@H]2CCCN2C1=O [Example 368] | > 10.00 | 
